Results reported in patent US7423159B2, “Agent for preventing or treating neuropathy” (Takeda Pharmaceutical Company Limited, priority 2002, dated 2008).

What was measured:
[1] = test system: rat C6 glioma cells; assay: GDNF production promoting action in rat C6 glioma cells (ELISA of culture supernatant); format: cell-based; settings: concentration which causes 50% increase of GDNF relative to the control group, cultured 2 days with test compound, GDNF in culture supernatant by ELISA
Experimental: Using rat C6 glioma cells, the GDNF production promoting action of the compound of the present invention was evaluated.
Rat C6 glioma cells (ATCC) were grown in Dulbecco's Modified Eagle's Medium (DMEM) containing 10% FBS (Fetal Bovine Serum) in a collagen type 1 coated 75 cm^2 culture flask (SUMITOMO BAKELITE Co., Ltd.) until near confluent, detached by trypsin treatment and washed once with DMEM containing 10% FBS.
The cells after washing were diluted with 10% FBS-containing DMEM to a concentration of 5×10^4/mL and seeded at 0.3 mL/well in each well of collagen type 1 coated 48 well culture dish (SUMITOMO BAKELITE Co., Ltd.). After 3 days, the culture in the culture dish was placed in a 1% BSA (bovine serum albumin, Sigma)-containing DMEM medium supplemented with various concentrations of test compound, and further cultured for 2 days. The culture supernatant was recovered and preserved at −80° C. until measurement of GDNF.
The content of GDNF in the culture supernatant was measured by the following ELISA Method.
Anti-GDNF antibody (MAB212, R&D) was diluted with TBS (Tris buffered physiological saline: 25 mmol/L Tris-HCl (pH 8.0), 150 mmol/L NaCl) to 2 μg/mL and dispensed at 0.1 mL/well to each well of a 96-well immunoplate. The 96-well immunoplate was incubated overnight at 4° C. and washed once with TBS containing Tween 20 at 0.05% (hereinafter to be abbreviated as TBST). A blocking solution (TBS containing 1% BSA and 5% sucrose) was added at 0.2 mL/well to each well after washing, and the plate was incubated at room temperature for 1 hr., after which each well was washed twice with TBST. The culture supernatant (0.1 mL) of the aforementioned C6 cells was added to each well after washing and the plate was incubated at room temperature for 3 hrs., after which the wells were washed 5 times with TBST. The 500-fold diluted anti-GDNF antibody (G2791, Promega) was added by 0.1 mL to each well after washing, incubated at room temperature for 2 hrs. and washed 5 times with TBST. A 5000-fold diluted horseradish peroxidase-labeled anti-chicken IgY antibody (G1351, Promega) was added at 0.1 mL/well to each well after washing, incubated at room temperature for 2 hrs. and washed 5 times with TBST. A substrate solution (TMB substrate solution, BIO-RAD) was added at 0.1 mL/well to each well after washing and allowed to develop color at room temperature for 8 min. To stop the reaction, 0.1 mL of 1 mol/L phosphoric acid was added to each well in coloring developing reaction. The absorbance of the reaction solution at 450 nm wavelength was measured.
In the same manner as above except the test compound was not used, the ELISA Method was performed and this was used as a control group.
Using various concentrations of GDNF (Promega), ELISA Method was performed in the same manner as above and standard line was prepared.
From the aforementioned absorbance and standard line, GDNF content in a sample was calculated and the concentration (EC50), which causes 50% increase of GDNF relative to the control group was calculated from the regression line.

[2] = Rattus norvegicus, C6 glioma, 48 h

Compound: COP(=O)(Cc1ccc(NC(=O)/C=C/c2cnn(C)c2-c2ccc(F)cc2)cc1)OC [Example 1, (2E)-N-[4-(dimethylphosphonomethyl)phenyl]-3-[5-(4-fluorophenyl)-1-methyl-1H-pyrazol-4-yl]acrylamide]
- melting point: 209 to 210 °C
- EC50 [1, 2]: 200 nM

Compound: CCOP(=O)(Cc1ccc(NC(=O)/C=C/c2cnn(C)c2-c2ccc(OC)cc2)cc1)OCC [Example 5, (2E)-N-[4-(Diethylphosphonomethyl)phenyl]-3-[5-(4-methoxyphenyl)-1-methyl-1H-pyrazol-4-yl]acrylamide]
- melting point: 199 to 200 °C
- EC50 [1, 2]: 1000 nM

Compound: CCOP(=O)(Cc1ccc(NC(=O)/C=C/c2cnn(C)c2-c2ccc(Cl)cc2)cc1)OCC [Example 9, (2E)-3-[5-(4-Chlorophenyl)-1-methyl-1H-pyrazol-4-yl]-N-[4-(diethylphosphonomethyl)phenyl]acrylamide]
- melting point: 217 to 218 °C
- EC50 [1, 2]: 2500 nM

Compound: CCOP(=O)(Cc1ccc(NC(=O)/C=C/c2cnn(C)c2-c2ccccc2)cc1)OCC [Example 11, (2E)-N-[4-(Diethylphosphonomethyl)phenyl]-3-(1-methyl-5-phenyl-1H-pyrazol-4-yl)acrylamide]
- melting point: 239 to 240 °C
- EC50 [1, 2]: 900 nM

Compound: CCOP(=O)(Cc1ccc(NC(=O)/C=C/c2cncn2-c2ccc(F)cc2)cc1)OCC [Example 61, (2E)-N-[4-(Diethylphosphonomethyl)phenyl]-3-[1-(4-fluorophenyl)-1H-imidazol-5-yl]acrylamide]
- melting point: 165 to 166 °C
- EC50 [1, 2]: 400 nM

Compound: CCOP(=O)(Cc1ccc(NC(=O)/C=C/c2snnc2-c2ccc(F)cc2)cc1)OCC [Example 71, (2E)-N-[4-(Diethylphosphonomethyl)phenyl]-3-[4-(4-fluorophenyl)-1,2,3-thiadiazol-5-yl]acrylamide]
- melting point: 173 to 175 °C
- EC50 [1, 2]: 1700 nM

Compound: Cn1ncc(/C=C/C(=O)Nc2ccc(CCc3cscn3)cc2)c1-c1ccc(F)cc1 [Example 91, (2E)-3-[5-(4-Fluorophenyl)-1-methyl-1H-pyrazol-4-yl]-N-{4-[2-(1,3-thiazol-4-yl)ethyl]phenyl}acrylamide]
- melting point: 211 to 212 °C
- EC50 [1, 2]: 490 nM

Compound: CC(=O)Cc1ccc(NC(=O)/C=C/c2cnn(C)c2-c2ccc(F)cc2)cc1 [Example 121, (2E)-3-[5-(4-Fluorophenyl)-1-methyl-1H-pyrazol-4-yl]-N-[4-(2-oxopropyl)phenyl]acrylamide]
- melting point: 186 to 187 °C
- EC50 [1, 2]: 180 nM

Compound: CCCC(=O)NCc1ccc(NC(=O)/C=C/c2cnn(C)c2-c2ccc(F)cc2)cc1 [Example 140, (2E)-N-{4-[(Butyrylamino)methyl]phenyl}-3-[5-(4-fluorophenyl)-1-methyl-1H-pyrazol-4-yl]acrylamide]
- melting point: 259 to 260 °C
- EC50 [1, 2]: 220 nM

Compound: CCOP(=O)(Cc1ccc(NC(=O)/C=C/c2cnn(C)c2-c2ccoc2)cc1)OCC [Example 147, Diethyl 4-[{(2E)-3-[5-(3-furyl)-1-methyl-1H-pyrazol-4-yl]prop-2-enoyl)amino]benzylphosphonate]
- melting point: 208 to 210 °C
- EC50 [1, 2]: 460 nM

Compound: Cn1ncc(/C=C/C(=O)Nc2ccc(Cn3cncn3)cc2)c1-c1ccc(F)cc1 [Example 163, (2E)-3-[5-(4-Fluorophenyl)-1-methyl-1H-pyrazol-4-yl]-N-[4-(1H-1,2,4-triazol-1-ylmethyl)phenyl]acrylamide]
- melting point: 225 to 226 °C
- EC50 [1, 2]: 190 nM

Compound: Cc1nccn1Cc1ccc(NC(=O)/C=C/c2cnn(C)c2-c2ccc(F)cc2)cc1 [Example 190, (2E)-3-[5-(4-Fluorophenyl)-1-methyl-1H-pyrazol-4-yl]-N-{4-[(2-methyl-1H-imidazol-1-yl)methyl]phenyl}acrylamide]
- melting point: 232 to 233 °C
- EC50 [1, 2]: 590 nM

Compound: (2E)-3-[5-(4-Fluorophenyl)-1-methyl-1H-pyrazol-4-yl]-N-[4-(1-pyrrolidinylmethyl) phenyl]acrylamide [Example 193]
- EC50 [1]: 160 nM
